Values belong to the compound of their own block, whether it stands above or below them.
Legend:
[1] = target: T1, BTK enzyme (recombinant full-length BTK, hBTK) (Homo sapiens, UniProt Q06187); assay: Btk enzyme activity assay (LANCE TR-FRET); format: biochemical; details: 50 pM hBTK, 25 μM ATP, 60 minute compound and enzyme incubation, concentration range 1 μM to 0.017 nM, read-out: BTK binding IC50
T1 construct: recombinant protein from baculovirus-transfected S 19 cells: full-length BTK, 6 HIS-tag cleaved; 6 HIS-tag (cleaved yes); made in house
T1 sequence (Q06187 whole entry): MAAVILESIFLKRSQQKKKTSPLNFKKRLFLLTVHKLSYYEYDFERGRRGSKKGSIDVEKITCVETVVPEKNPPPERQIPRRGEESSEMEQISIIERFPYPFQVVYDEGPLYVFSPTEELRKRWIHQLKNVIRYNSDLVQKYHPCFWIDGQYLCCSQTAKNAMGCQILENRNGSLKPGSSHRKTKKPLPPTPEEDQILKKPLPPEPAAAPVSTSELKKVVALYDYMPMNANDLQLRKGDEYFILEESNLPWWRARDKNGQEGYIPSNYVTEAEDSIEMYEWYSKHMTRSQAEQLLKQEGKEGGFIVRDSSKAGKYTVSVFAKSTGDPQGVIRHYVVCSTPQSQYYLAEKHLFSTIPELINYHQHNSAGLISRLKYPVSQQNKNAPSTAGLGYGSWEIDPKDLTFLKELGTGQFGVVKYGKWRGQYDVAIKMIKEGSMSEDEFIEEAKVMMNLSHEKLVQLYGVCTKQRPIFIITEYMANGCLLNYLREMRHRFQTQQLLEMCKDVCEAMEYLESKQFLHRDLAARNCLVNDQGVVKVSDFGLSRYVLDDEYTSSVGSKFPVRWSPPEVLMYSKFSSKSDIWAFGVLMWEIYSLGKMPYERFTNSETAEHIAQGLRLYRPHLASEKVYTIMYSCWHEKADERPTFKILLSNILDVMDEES

[2] = system: adenosine uptake into HeLa cells; assay: [3H]Adenosine uptake assay; format: cell-based; details: Homo sapiens; accumulation of [3H]adenosine into HeLa cells; concentration range 10 μM to 0.032 nM; read-out: ADU inhibition IC50
Outline: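 HeLa cells (25 000/well), plated overnight, were preincubated 30 minutes at ambient temperature with compound in HBSS + 5% FBS. Ten-point titrations ran from 10 μM to 0.032 nM final. [3H]adenosine was added from a 500 nM solution for 60 minutes, and uptake was measured by scintillation proximity counting; IC50 came from a 4-parameter fit.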

IC50 [1]: 26.7 nM
IC50 [2]: 1020 nM
SMILES: C[C@H]1CO[C@@H](c2nc(-c3ccc(C(=O)Nc4ccccn4)cc3)c3c(N)nccn23)CN1C1CCOCC1 [Example 57, 4-{8-amino-3-[(2R,5S)-5-methyl-4-(tetrahydro-2H-pyran-4-yl)morpholin-2-yl]imidazo[1,5-a]pyrazin-1-yl}-N-pyridin-2-ylbenzamide]

IC50 [1]: 5.28 nM
IC50 [2]: 48.5 nM
SMILES: Nc1nccn2c([C@H]3CN(C(=O)C4CC4)[C@H](CO)CO3)nc(-c3ccc(C(=O)Nc4cc(C(F)(F)F)ccn4)cc3F)c12 [Example 63, 4-{8-amino-3-[(2R,5R)-4-(cyclopropylcarbonyl)-5-(hydroxymethyl)morpholin-2-yl]imidazo[1,5-a]pyrazin-1-yl}-3-fluoro-N-[4-(trifluoromethyl)pyridin-2-yl]benzamide]

IC50 [1]: 6.78 nM
IC50 [2]: 136 nM
SMILES: Nc1nccn2c([C@H]3CN(C4CCOCC4)[C@H](CO)CO3)nc(-c3ccc(C(=O)Nc4cc(C(F)(F)F)ccn4)cc3F)c12 [Example 65, 4-{8-amino-3-[(2R,5R)-5-(hydroxymethyl)-4-(tetrahydro-2H-pyran-4-yl)morpholin-2-yl]imidazo[1,5-a]pyrazin-1-yl}-3-fluoro-N-[4-(trifluoromethyl)pyridin-2-yl]benzamide]

IC50 [1]: 1.23 nM
IC50 [2]: 24.6 nM
SMILES: Nc1nccn2c([C@H]3CN(C4COC4)[C@H](CO)CO3)nc(-c3ccc(C(=O)Nc4cc(C(F)(F)F)ccn4)cc3F)c12 [Example 66, 4-{8-amino-3-[(2R,5R)-5-(hydroxymethyl)-4-oxetan-3-ylmorpholin-2-yl]imidazo[1,5-a]pyrazin-1-yl}-3-fluoro-N-[4-(trifluoromethyl)pyridin-2-yl]benzamide]

IC50 [1]: 1.97 nM
IC50 [2]: 129 nM
SMILES: Nc1nccn2c([C@H]3CN[C@H](CO)CO3)nc(-c3ccc(C(=O)Nc4cc(C(F)(F)F)ccn4)cc3F)c12 [Example 67, 4-{8-amino-3-[(2R,5R)-5-(hydroxymethyl)morpholin-2-yl]imidazo[1,5-a]pyrazin-1-yl}-3-fluoro-N-[4-(trifluoromethyl)pyridin-2-yl]benzamide]

IC50 [1]: 10.9 nM
IC50 [2]: 139 nM
SMILES: C[C@@H]1CO[C@@H](c2nc(-c3ccc(C(=O)Nc4cc(C(F)(F)F)ccn4)cc3F)c3c(N)nccn23)CN1C(=O)C1(C)CC1 [Example 69, 4-(8-amino-3-{(2R,5R)-5-methyl-4-[(1-methylcyclopropyl)carbonyl]morpholin-2-yl}imidazo[1,5-a]pyrazin-1-yl)-3-fluoro-N-[4-(trifluoromethyl)pyridin-2-yl]benzamide]

IC50 [1]: 2.67 nM
IC50 [2]: 122 nM
SMILES: C[C@@H]1CO[C@@H](c2nc(-c3ccc(C(=O)Nc4cc(C(F)(F)F)ccn4)cc3F)c3c(N)nccn23)CN1C1CCOCC1 [Example 73, 4-{8-amino-3-[(2R,5R)-5-methyl-4-(tetrahydro-2H-pyran-4-yl)morpholin-2-yl]imidazo[1,5-a]pyrazin-1-yl}-3-fluoro-N-[4-(trifluoromethyl)pyridin-2-yl]benzamide]

IC50 [1]: 0.47 nM
IC50 [2]: 224 nM
SMILES: C[C@H]1CO[C@@H](c2nc(-c3ccc(C(=O)Nc4cc(C(F)(F)F)ccn4)cc3F)c3c(N)nccn23)CN1Cc1cnn(C)c1 [Example 74, 4-(8-amino-3-{(2R,5S)-5-methyl-4-[(1-methyl-1H-pyrazol-4-yl)methyl]morpholin-2-yl}imidazo[1,5-a]pyrazin-1-yl)-3-fluoro-N-[4-(trifluoromethyl)pyridin-2-yl]benzamide]

IC50 [1]: 0.44 nM
IC50 [2]: 239 nM
SMILES: C[C@H]1CO[C@@H](c2nc(-c3ccc(C(=O)Nc4cc(C(F)(F)F)ccn4)cc3F)c3c(N)nccn23)CN1C(=O)C1(C)COC1 [Example 77, 4-(8-amino-3-{(2R,5S)-5-methyl-4-[(3-methyloxetan-3-yl)carbonyl]morpholin-2-yl}imidazo[1,5-a]pyrazin-1-yl)-3-fluoro-N-[4-(trifluoromethyl)pyridin-2-yl]benzamide]

Second part, the compound before the results:

SMILES: COc1cc(C(=O)Nc2cc(C(F)(F)F)ccn2)ccc1-c1nc([C@H]2CN(Cc3[nH]cnc3C)[C@@H](C)CO2)n2ccnc(N)c12 [Example 53, 4-(8-amino-3-{(2R,5S)-5-methyl-4-[(4-methyl-1H-imidazol-5-yl)methyl]morpholin-2-yl}imidazo[1,5-a]pyrazin-1-yl)-3-methoxy-N-[4-(trifluoromethyl)pyridin-2-yl]benzamide]
IC50 [1]: 5.8 nM
IC50 [2]: 1030 nM

SMILES: COc1cc(C(=O)Nc2cc(C(F)(F)F)ccn2)ccc1-c1nc([C@H]2CN(Cc3cnn(C)c3)[C@@H](C)CO2)n2ccnc(N)c12 [Example 54, 4-(8-amino-3-{(2R,5S)-5-methyl-4-[(1-methyl-1H-pyrazol-4-yl)methyl]morpholin-2-yl}imidazo[1,5-a]pyrazin-1-yl)-3-methoxy-N-[4-(trifluoromethyl)pyridin-2-yl]benzamide]
IC50 [1]: 2.28 nM
IC50 [2]: 1650 nM

SMILES: COc1cc(C(=O)Nc2cc(C(F)(F)F)ccn2)ccc1-c1nc([C@H]2CN(C3COC3)[C@@H](C)CO2)n2ccnc(N)c12 [Example 55, 4-{8-amino-3-[(2R,5S)-5-methyl-4-oxetan-3-ylmorpholin-2-yl]imidazo[1,5-a]pyrazin-1-yl}-3-methoxy-N-[4-(trifluoromethyl)pyridin-2-yl]benzamide]
IC50 [1]: 2.54 nM
IC50 [2]: 2060 nM

SMILES: COc1cc(C(=O)Nc2cc(C(F)(F)F)ccn2)ccc1-c1nc([C@H]2CN(C3CCOCC3)[C@@H](C)CO2)n2ccnc(N)c12 [Example 60, 4-{8-amino-3-[(2R,5S)-5-methyl-4-(tetrahydro-2H-pyran-4-yl)morpholin-2-yl]imidazo[1,5-a]pyrazin-1-yl}-3-methoxy-N-[4-(trifluoromethyl)pyridin-2-yl]benzamide]
IC50 [1]: 1.57 nM
IC50 [2]: 1620 nM

SMILES: C[C@H]1CO[C@@H](c2nc(-c3ccc(C(=O)Nc4cc(C5CC5)ccn4)cc3F)c3c(N)nccn23)CN1C1CCOCC1 [Example 61, 4-{8-amino-3-[(2R,5S)-5-methyl-4-(tetrahydro-2H-pyran-4-yl)morpholin-2-yl]imidazo[1,5-a]pyrazin-1-yl}-N-(4-cyclopropylpyridin-2-yl)-3-fluorobenzamide]
IC50 [1]: 0.814 nM
IC50 [2]: 386 nM

SMILES: C[C@H]1CO[C@@H](c2nc(-c3ccc(C(=O)Nc4ccccn4)cc3)c3c(N)nccn23)CN1C(=O)C1CC1 [Example 62, 4-{8-amino-3-[(2R,5S)-4-(cyclopropylcarbonyl)-5-methylmorpholin-2-yl]imidazo[1,5-a]pyrazin-1-yl}-N-pyridin-2-ylbenzamide]
IC50 [1]: 10.8 nM
IC50 [2]: 256 nM

SMILES: Cn1cc(CN2C[C@H](c3nc(-c4ccc(C(=O)Nc5cc(C(F)(F)F)ccn5)cc4F)c4c(N)nccn34)OC[C@H]2CO)cn1 [Example 64, 4-(8-amino-3-{(2R,5R)-5-(hydroxymethyl)-4-[(1-methyl-1H-pyrazol-4-yl)methyl]morpholin-2-yl}imidazo[1,5-a]pyrazin-1-yl)-3-fluoro-N-[4-(trifluoromethyl)pyridin-2-yl]benzamide]
IC50 [1]: 4.33 nM
IC50 [2]: 260 nM

SMILES: C[C@H](O)C(=O)N1C[C@H](c2nc(-c3ccc(C(=O)Nc4cc(C(F)(F)F)ccn4)cc3F)c3c(N)nccn23)OC[C@H]1C [Example 68, 4-(8-amino-3-{(2R,5R)-4-[(2S)-2-hydroxypropanoyl]-5-methylmorpholin-2-yl}imidazo[1,5-a]pyrazin-1-yl)-3-fluoro-N-[4-(trifluoromethyl)pyridin-2-yl]benzamide]
IC50 [1]: 3.02 nM
IC50 [2]: 76.6 nM

SMILES: COCC(=O)N1C[C@H](c2nc(-c3ccc(C(=O)Nc4cc(C(F)(F)F)ccn4)cc3F)c3c(N)nccn23)OC[C@H]1C [Example 70, 4-{8-amino-3-[(2R,5R)-4-(methoxyacetyl)-5-methylmorpholin-2-yl]imidazo[1,5-a]pyrazin-1-yl}-3-fluoro-N-[4-(trifluoromethyl)pyridin-2-yl]benzamide]
IC50 [1]: 13.8 nM
IC50 [2]: 135 nM

SMILES: CC(=O)N1C[C@H](c2nc(-c3ccc(C(=O)Nc4cc(C(F)(F)F)ccn4)cc3F)c3c(N)nccn23)OC[C@H]1C [Example 71, 4-{3-[(2R,5R)-4-acetyl-5-methylmorpholin-2-yl]-8-aminoimidazo[1,5-a]pyrazin-1-yl}-3-fluoro-N-[4-(trifluoromethyl)pyridin-2-yl]benzamide]
IC50 [1]: 6.63 nM
IC50 [2]: 110 nM

SMILES: C[C@@H]1CO[C@@H](c2nc(-c3ccc(C(=O)Nc4cc(C(F)(F)F)ccn4)cc3F)c3c(N)nccn23)CN1Cc1cnn(C)c1 [Example 72, 4-(8-amino-3-{(2R,5R)-5-methyl-4-[(1-methyl-1H-pyrazol-4-yl)methyl]morpholin-2-yl}imidazo[1,5-a]pyrazin-1-yl)-3-fluoro-N-[4-(trifluoromethyl)pyridin-2-yl]benzamide]
IC50 [1]: 1.45 nM
IC50 [2]: 138 nM

SMILES: C[C@H]1CO[C@@H](c2nc(-c3ccc(C(=O)Nc4cc(C(F)(F)F)ccn4)cc3F)c3c(N)nccn23)CN1C1CCOCC1 [Example 75, 4-{8-amino-3-[(2R,5S)-5-methyl-4-(tetrahydro-2H-pyran-4-yl)morpholin-2-yl]imidazo[1,5-a]pyrazin-1-yl}-3-fluoro-N-[4-(trifluoromethyl)pyridin-2-yl]benzamide]
IC50 [1]: 0.329 nM
IC50 [2]: 350 nM

SMILES: C[C@H]1CO[C@@H](c2nc(-c3ccc(C(=O)Nc4cc(C(F)(F)F)ccn4)cc3F)c3c(N)nccn23)CN1C1COC1 [Example 76, 4-{8-amino-3-[(2R,5S)-5-methyl-4-oxetan-3-ylmorpholin-2-yl]imidazo[1,5-a]pyrazin-1-yl}-3-fluoro-N-[4-(trifluoromethyl)pyridin-2-yl]benzamide]
IC50 [1]: 0.531 nM
IC50 [2]: 237 nM

Source: patent US20170349593A1, “BTK INHIBITORS” (MERCK SHARP & DOHME CORP., priority 2014, published 2017)
